Assays:
[1] = target: T1, Orexin/Hypocretin receptor type 1 (Homo sapiens, UniProt O43613); assay: (§1) Fluorescent Imaging Plate Reader (FLIPR) Assay: Orexin antagonist activity was determined by measuring changes in intracellular calcium levels using a Ca2+ sensitive fluorescent dye. The changes in fluorescent signal were monitored by Fluorescent Imaging Plate Reader (FLIPR) technology available from Molecular Devices, LLC, U.S.A. Orexin mediated increases in intracellular Ca2+ concentration were readily detected upon activation with orexin-A. Twenty-four hours prior to the assay, RBL-2H3 cells stably expressing either human orexin receptor 1 or human orexin receptor 2 were seeded in cell culture medium in black, clear-bottom 384-well plates (commercially available from Corning Inc., U.S.A.) and grown overnight at 37° C., 5% CO2. On the day of the assay, cell culture media was removed and cells were loaded with Calcium 5 Dye (commercially sold by Molecular Devices, LLC, U.S.A.) for 1 hour at 37° C., 5% CO2. Test compounds (at 10 point half log concentration response curves from 10 uM) were added to cells for 15 minutes prior to the addition of orexin-A to all wells, to achieve a final concentration that produces approximately an 80% maximal response. The IC50 values were determined from ten point concentration response curves. Curves were generated using the average of two wells for each data point.; assay type: cell-based
T1 sequence (O43613 whole entry): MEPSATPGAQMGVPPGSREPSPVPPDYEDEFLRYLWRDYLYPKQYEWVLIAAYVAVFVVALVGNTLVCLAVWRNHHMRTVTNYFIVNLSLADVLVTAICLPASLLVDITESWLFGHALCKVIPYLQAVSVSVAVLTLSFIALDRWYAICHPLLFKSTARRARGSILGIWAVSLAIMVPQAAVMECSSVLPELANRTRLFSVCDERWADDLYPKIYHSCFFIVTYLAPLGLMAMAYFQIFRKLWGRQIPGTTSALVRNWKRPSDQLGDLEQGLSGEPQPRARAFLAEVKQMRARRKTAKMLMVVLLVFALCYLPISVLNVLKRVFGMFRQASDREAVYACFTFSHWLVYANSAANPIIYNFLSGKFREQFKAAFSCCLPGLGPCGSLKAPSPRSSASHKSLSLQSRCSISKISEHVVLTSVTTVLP

Orexin receptor type 2 = target: T2, Orexin receptor type 2 (Homo sapiens, UniProt O43614); assay: as §1; assay type: cell-based
T2 sequence (O43614 whole entry): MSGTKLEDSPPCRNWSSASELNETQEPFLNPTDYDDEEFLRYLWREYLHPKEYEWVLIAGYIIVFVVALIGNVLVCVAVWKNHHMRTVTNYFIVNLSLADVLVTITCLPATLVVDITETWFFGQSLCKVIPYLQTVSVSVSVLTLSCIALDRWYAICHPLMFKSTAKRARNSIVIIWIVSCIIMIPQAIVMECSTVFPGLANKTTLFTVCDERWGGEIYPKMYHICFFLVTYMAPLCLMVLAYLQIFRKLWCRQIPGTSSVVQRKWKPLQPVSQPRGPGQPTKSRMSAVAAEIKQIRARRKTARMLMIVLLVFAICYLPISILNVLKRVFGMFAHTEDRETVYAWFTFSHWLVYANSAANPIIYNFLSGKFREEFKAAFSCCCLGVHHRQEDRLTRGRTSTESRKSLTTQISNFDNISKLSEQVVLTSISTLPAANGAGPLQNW

| SMILES | IC50 [1] [nM] | IC50 (Orexin receptor type 2) [nM] |
| --- | --- | --- |
| CCOc1cccc(OCC)c1C(=O)N[C@@H]1CCC[C@@H]1Nc1nc2ccccc2o1 | 130 | 1200 |
| Cc1ccc(-n2nccn2)c(C(=O)N[C@H]2CCC[C@@H]2Nc2ncc3ccccc3n2)c1 | 24 | > 10000 |
| COc1cccc(OC)c1C(=O)N[C@@H]1COC[C@@H]1Nc1nc2ccc(Cl)cc2s1 (relative stereo) | 220 | 1400 |

Reference: ChEMBL document CHEMBL5725243, “Cyclopentylbenzamide derivatives and their use for the treatment of psychotic and cognitive disorders” (2016)
